Read-outs that look alike come from different tables or passages of the source.

Test [1] concerns GM3 expression on the cell surface, B16 mouse melanoma cells. Kind of test: cell based phenotypic assay, cell surface GM3 by antibody mediated immunofluorescence, B16 (GM3 B16 IC50). Particulars: 50% inhibition of GM3 expression on the cell surface. Summed up: (§1)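 B16 mouse and C32 human melanoma cells; cell-surface GM3 measured by antibody-mediated immunofluorescence, giving IC50.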

For test [2], the target named is T1, glucosylceramide synthase (Homo sapiens, UniProt Q16739).
T1 construct: Microsomes were isolated from A375 human melanoma cells; endogenous in cells; host or cells: A375 human melanoma cells (microsomal fraction, 100,000 g pellet)
T1 sequence (Q16739 1-394): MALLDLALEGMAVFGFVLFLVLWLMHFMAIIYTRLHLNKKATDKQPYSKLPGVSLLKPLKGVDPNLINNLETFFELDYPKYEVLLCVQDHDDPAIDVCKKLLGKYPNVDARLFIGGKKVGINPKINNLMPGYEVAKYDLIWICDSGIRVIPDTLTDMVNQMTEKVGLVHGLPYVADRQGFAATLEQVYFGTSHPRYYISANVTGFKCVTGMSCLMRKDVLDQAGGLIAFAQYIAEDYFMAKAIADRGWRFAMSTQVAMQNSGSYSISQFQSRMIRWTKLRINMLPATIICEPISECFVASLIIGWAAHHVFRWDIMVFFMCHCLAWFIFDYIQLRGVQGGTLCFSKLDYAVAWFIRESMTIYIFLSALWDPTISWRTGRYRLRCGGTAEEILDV
Put plainly: microsomal assay measuring conversion of ceramide to glucosylceramide by HPLC (GCS IC50). The format is biochemical. Particulars: concentration causing 50% inhibition of glucosylceramide synthase activity. Summed up:
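Microsomal preparation assayed for glucosylceramide synthase by direct HPLC measurement of ceramide conversion to glucosylceramide. GCS IC50 is the compound concentration giving 50% inhibition of enzyme activity.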

A further test concerns B16 mouse melanoma cells. Kind of test: cell viability in the B16 cell-based assay (Viability, B16 IC50). The essentials: (§2)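 Both lines undergo the phenotypic GM3 assay, and viability is recorded from that same cell-based run.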
The subject of test [3] is GM3 expression on the cell surface, C32 human melanoma cells. Kind of test: cell based phenotypic assay, cell surface GM3 by antibody mediated immunofluorescence, C32 (GM3 C32 IC50). Conditions: 50% inhibition of GM3 expression on the cell surface. The essentials:
as §1

The next test concerns C32 human melanoma cells. Put plainly: cell viability in the C32 cell-based assay (Viability, C32 IC50). Conditions: concentration causing 50% cell death, values greater than 10 represent a lack of cell death. The essentials:
as §2

[4] abbreviates: Mus musculus, read-out: GM3 B16 IC50, B16 mouse melanoma cells.
Where [5] appears, read: Mus musculus, B16, read-out: Viability, B16 IC50.
Setting [6] is: Homo sapiens, read-out: GM3 C32 IC50, C32 human melanoma cells.
Setting [7] is: Homo sapiens, C32, read-out: Viability, C32 IC50, C32 cells.
Where [8] appears, read: Mus musculus, B16 mouse melanoma cells, read-out: GM3 B16 IC50.
[9] abbreviates: Mus musculus, B16, B16 cells, concentration causing 50% cell death, values greater than 10 represent a lack of cell death, read-out: Viability, B16 IC50.
[10] abbreviates: Homo sapiens, C32 human melanoma cells, read-out: GM3 C32 IC50.
Where [11] appears, read: Homo sapiens, C32, C32 cells, read-out: Viability, C32 IC50.
[12] abbreviates: B16 mouse melanoma cells, read-out: GM3 B16 IC50.
The mark [13] stands for this setting: B16 cells, concentration causing 50% cell death, values greater than 10 represent a lack of cell death, read-out: Viability, B16 IC50.
The mark [14] stands for this setting: C32 human melanoma cells, read-out: GM3 C32 IC50.
Where [15] appears, read: C32 cells, read-out: Viability, C32 IC50.

For the compound `CC(C)(NC(=O)OC1CN2CCC1CC2)c1ccc(-c2ccc(C(=O)N3CC(F)(F)C3)cc2)cc1` (centres unmarked) [Example 273, Quinuclidin-3-yl 2-(4′-(3,3-difluoroazetidine-1-carbonyl)biphenyl-4-yl)propan-2-ylcarbamate], the IC50 in test [1] (setting [4]) is 74 nM; in test [2], 108 nM; in the test on B16 mouse melanoma cells (setting [5]), at least 10000 nM; in test [3] (setting [6]) it was 10.6 nM; in the test on C32 human melanoma cells (setting [7]) it was 3160 nM.

As for `CC(C)(C)CCS(=O)(=O)c1ccc(C#CC(C)(C)NC(=O)NC2(C)CN3CCC2CC3)cc1` (centres unmarked) [Example 337, 1-(4-(4-((3,3-Dimethylbutyl)sulfonyl)phenyl)-2-methylbut-3-yn-2-yl)-3-(3-methylquinuclidin-3-yl)urea], the IC50 in test [1] (setting [8]) is 94.1 nM; in test [2], 14.5 nM; with B16 mouse melanoma cells (setting [9]), 2150 nM; in test [3] (setting [10]), 2.54 nM; in the test on C32 human melanoma cells (setting [11]), 1000 nM.

With `CNC(=O)c1ccc(-c2ccc(C(C)(C)NC(=O)NC3(C)CN4CCC3CC4)cc2)cc1` (centres unmarked) [Example 253, N-Methyl-4′-(2-(3-(3-methylquinuclidin-3-yl)ureido)propan-2-yl)-[1,1′-biphenyl]-4-carboxamide], the IC50 in test [1] (setting [8]) is 2000 nM; in test [2], 751 nM; in the test on B16 mouse melanoma cells (setting [9]), 2000 nM; in test [3] (setting [10]), 201 nM; in the test with C32 human melanoma cells (setting [11]), 2000 nM.

On to `COCCOCc1ccc(-c2cccc(N3CCC(C(=O)NC4(C)CCN5CCC4CC5)CC3)c2)cc1` (centres unmarked) [Example 69, 1-(4′-((2-Methoxyethoxy)methyl)-[1,1′-biphenyl]-3-yl)-N-(4-methyl-1-azabicyclo[3.2.2]nonan-4-yl)piperidine-4-carboxamide], for which the half-inhibitory concentration (IC50) in test [1] (setting [8]) was determined as 303 nM; in test [2], 36.2 nM; with B16 mouse melanoma cells (setting [9]) it was 4640 nM; in test [3] (setting [10]) it was 4.64 nM; in the test on C32 human melanoma cells (setting [11]) it was 1000 nM.

Consider `CC(C)(NC(=O)NC1(C)CCN2CCC1CC2)c1ccc(-c2ccc(OCCn3cccn3)cc2)cc1` (centres unmarked) [Example 181, 1-(2-(4′-(2-(1H-Pyrazol-1-yl)ethoxy)-[1,1′-biphenyl]-4-yl)propan-2-yl)-3-(4-methyl-1-azabicyclo[3.2.2]nonan-4-yl)urea], for which the IC50 in test [1] (setting [8]) was determined as 5.15 nM; in test [2], 2.33 nM; in the test on B16 mouse melanoma cells (setting [9]) it was 1000 nM; in test [3] (setting [10]) it was 0.587 nM; in the test on C32 human melanoma cells (setting [11]), 1000 nM.

For the compound `O=C(NC1CCN2CCC1CC2)N1CCN(c2cccc(-c3ccccc3)c2)CC1` (centres unmarked) [Example 14, 4-([1,1′-Biphenyl]-3-yl)-N-(1-azabicyclo[3.2.2]nonan-4-yl)piperazine-1-carboxamide], the half-maximal inhibitory concentration (IC50) in test [1] (setting [8]) is 3390 nM; in test [2], 705 nM; in the test on B16 mouse melanoma cells (setting [9]), 6790 nM; in test [3] (setting [10]), 108 nM; in the test with C32 human melanoma cells (setting [11]) it was at least 10000 nM.

Consider `CCC1(NC(=O)NC2(c3ccc(-c4ccc(COCCOC)cc4)cc3)CC2)CN2CCC1CC2` (single isomer, unassigned) [Example 209, 1-(3-Ethylquinuclidin-3-yl)-3-(1-(4′-((2-methoxyethoxy)methyl)-[1,1′-biphenyl]-4-yl)cyclopropyl)urea], for which the IC50 in test [1] (setting [12]) is 39.2 nM; in test [2] it was 17.4 nM; in the test on B16 mouse melanoma cells (setting [13]), at least 10000 nM; in test [3] (setting [14]), 1.05 nM; with C32 human melanoma cells (setting [15]) it was 1780 nM.

Take `CCC1(NC(=O)NC(C)(C)c2ccc(-c3ccc(S(=O)(=O)CC4(COC)CC4)cc3)cc2)CN2CCC1CC2` (centres unmarked) [Example 250, 1-(3-Ethylquinuclidin-3-yl)-3-(2-(4′-(((1-(methoxymethyl)cyclopropyl)methyl)sulfonyl)-[1,1′-biphenyl]-4-yl)propan-2-yl)urea]: the IC50 in test [1] (setting [8]) is 84.5 nM; in test [2], 20.1 nM; with B16 mouse melanoma cells (setting [9]) it was at least 10000 nM; in test [3] (setting [10]), 4.41 nM; in the test with C32 human melanoma cells (setting [11]), 1000 nM.

For “4-([1,1′-Biphenyl]-3-yl)-3-methyl-N-(4-methyl-1-azabicyclo[3.2.2]nonan-4-yl)piperazine-1-carboxamide [Example 32]”, the IC50 stood at 462 nM in test [1] (setting [12]); 544 nM in test [2]; 7290 nM in the test on B16 mouse melanoma cells (setting [13]); 46.5 nM in test [3] (setting [14]); 3160 nM in the test with C32 human melanoma cells (setting [15]).

For the compound `CC(C)(NC(=O)OC1CN2CCC1CC2)c1ccc(-c2ccc(CCc3c[nH]nn3)cc2)cc1` (centres unmarked) [Example 227, Quinuclidin-3-yl (2-(4′-(2-(1H-1,2,3-triazol-4-yl)ethyl)-[1,1′-biphenyl]-4-yl)propan-2-yl)carbamate], the IC50 is 122 nM in test [1] (setting [4]); 27 nM in test [2]; at least 10000 nM in the test with B16 mouse melanoma cells (setting [5]); 10.4 nM in test [3] (setting [6]); 1000 nM in the test with C32 human melanoma cells (setting [7]).

As for `CCC1(NC(=O)NC(C)(C)c2ccc(-c3ccc(CCO)cc3)cc2)CN2CCC1CC2` (centres unmarked) [Example 225, 1-(3-Ethylquinuclidin-3-yl)-3-(2-(4′-(2-hydroxyethyl)-[1,1′-biphenyl]-4-yl)propan-2-yl)urea], the IC50 was 229 nM in test [1] (setting [8]); 29.4 nM in test [2]; at least 10000 nM in the test with B16 mouse melanoma cells (setting [9]); 1.92 nM in test [3] (setting [10]); at least 10000 nM in the test on C32 human melanoma cells (setting [11]).

Turning to `CCC1(NC(=O)NC(C)(C)c2ccc(-c3ccc(COCCOC)cc3)cc2)CN2CCC1CC2` (centres unmarked) [Example 199, 1-(3-Ethylquinuclidin-3-yl)-3-(2-(4′-((2-methoxyethoxy)methyl)-[1,1′-biphenyl]-4-yl)propan-2-yl)urea], the IC50 in test [1] (setting [8]) is 31.7 nM; in test [2], 14.7 nM; with B16 mouse melanoma cells (setting [9]), 1000 nM; in test [3] (setting [10]), 1.8 nM; in the test with C32 human melanoma cells (setting [11]) it was 1000 nM.

`CC(C)(NC(=O)OC1CCN2CCC1CC2)c1ccc(-c2ccc(C(=O)N3CCCCC3)cc2)cc1` (centres unmarked) [Example 263, 1-Azabicyclo[3.2.2]nonan-4-yl 2-(4′-(piperidine-1-carbonyl)biphenyl-4-yl)propan-2-ylcarbamate]: the IC50 in test [1] (setting [8]) is 75 nM; in test [2], 14.5 nM; in the test with B16 mouse melanoma cells (setting [9]) it was at least 10000 nM; in test [3] (setting [10]), 3.01 nM; in the test with C32 human melanoma cells (setting [11]), 1000 nM.

Turning to `CCC1(NC(=O)NC2(c3ccc(-c4ccc(COCCOC)cc4)cc3)CC2)CN2CCC1CC2` (centres unmarked) [Example 206, 1-(3-Ethylquinuclidin-3-yl)-3-(1-(4′-((2-methoxyethoxy)methyl)-[1,1′-biphenyl]-4-yl)cyclopropyl)urea], the IC50 is 59.6 nM in test [1] (setting [8]); 27.8 nM in test [2]; at least 10000 nM in the test on B16 mouse melanoma cells (setting [9]); 2.66 nM in test [3] (setting [10]); 1780 nM in the test with C32 human melanoma cells (setting [11]).

For the compound `CC1(NC(=O)C2(F)CCN(c3nccc(OC4CCOCC4)n3)CC2)CCN2CCC1CC2` (centres unmarked) [Example 123, 4-Fluoro-N-(4-methyl-1-azabicyclo[3.2.2]nonan-4-yl)-1-(4-((tetrahydro-2H-pyran-4-yl)oxy)pyrimidin-2-yl)piperidine-4-carboxamide], the IC50 in test [1] (setting [8]) is 226 nM; in test [2] it was 42.3 nM; in the test on B16 mouse melanoma cells (setting [9]) it was at least 10000 nM; in test [3] (setting [10]), 2.26 nM; with C32 human melanoma cells (setting [11]) it was 1000 nM.

With `COCc1ccc(-c2ccnc(N3CCC(C(=O)NC4(C)CN5CCC4CC5)CC3)n2)cc1` (centres unmarked) [Example 73, 1-(4-(4-(Methoxymethyl)phenyl)pyrimidin-2-yl)-N-(3-methylquinuclidin-3-yl)piperidine-4-carboxamide], the IC50 in test [1] (setting [8]) came out at 47.4 nM; in test [2], 3.46 nM; in the test on B16 mouse melanoma cells (setting [9]), 4640 nM; in test [3] (setting [10]), 0.25 nM; in the test with C32 human melanoma cells (setting [11]), 631 nM.

As usually defined, the IC50 is the concentration needed to halve the response being measured.

Source of the values: patent US12060349B2, “Glucosylceramide synthase inhibitors” (Genzyme Corporation, priority 2012, dated 2024).
